# Laboratory results published in US20220133872A1, “A MONOPHOSPHORYL LIPID-A LIPOSOME BASED CANCER VACCINE” (University of Florida Research Foundation, Inc., priority 2019, published 2022).
# Entries after “also recorded” stand apart in the source; their conditions may differ.
# Tested on: NKT cells
# Assay: NKT cells in blood, spleen and liver of vaccinated C57BL/6 mice (flow cytometry)
# Type: in vivo
# Details: vs untreated mice
# Experimental: B16-F10 mouse melanoma cell line in C57/BL6 mice provides a syngeneic model of spontaneous highly metastatic tumor. As shown in the diagram of FIG. 13, three groups of mice were injected with B16 melanoma cell lines. Only one group received the GD3 based vaccine, the other groups were a control group and α-galactosylceramide (α-GalCer), a potent and specific activator of mouse and human iNKT cells. These C57BL/6 mice were vaccinated weekly for 4 weeks followed by a week of rest (see FIG. 13). Mice where then euthanized to collect, blood, liver, and spleen for evaluation of NKT cells. Liver lymphocytes were collected by making mono-cellular suspension of liver obtained after enzymatic digestion. Collected lymphocytes were stained for CD3, CD4, TCRβ, NK1.1, CD49b and dead cells. In these experiments untreated and α-galactosylceramide (α-GalCer) treated mice were used as controls. Tumor size and mass was only recorded.
# One week post last vaccination, mice were euthanized as per IACUC protocol and Natural Killer T cells were evaluated in blood, spleen, and liver by staining the isolated cells with anti-CD45, CD3, CD4, TCRb, CD49b and NK1.1 antibodies. The stained cells were analyzed on BD Fortessa and FlowJo 10 v.
structure (smiles),measurement,setting,value
"CCCCCCCCCCCCCCCCCCCCCCCCCC(=O)N[C@@H](CO[C@H]1O[C@H](CO)[C@H](O)[C@H](O)[C@H]1O)[C@H](O)[C@H](O)CCCCCCCCCCCCCC [α-GalCer, α-galactosylceramide]",NKT cells in the liver,"liver, weekly x4, one week after last vaccination",increased; also recorded: accumulation
same,NKT cells in spleen and blood,spleen and blood,no discernable differences
